In ChEMBL document CHEMBL1125090, “Expedient synthesis and biochemical properties of an [125I]-labeled analogue of glyburide, a radioligand for ATP-inhibited potassium channels” (J Med Chem, 1990):

Test: Inhibition of [125I]-I binding to ATP-inhibited Potassium channel receptor of Rat brain homogenate

Row | SMILES | Ki
1 | COc1ccc(I)cc1C(=O)NCCc1ccc(S(=O)(=O)NC(=O)NC2CCCCC2)cc1 | 2.6 nM
2 | Cc1cnc(C(=O)NCCc2ccc(S(=O)(=O)NC(=O)NC3CCCCC3)cc2)cn1 [GLIPIZIDE] | 8.2 nM
3 | COc1ccc(Cl)cc1C(=O)NCCc1ccc(S(=O)(=O)NC(=O)NC2CCCCC2)cc1 [GLYBURIDE] | 0.608 nM
